The values below come from patent publication US5482942A, “(3,4-dioxocyclobuten-1-yl)chromene, indene, and dihydronaphthalenone derivatives as smooth muscle relaxants” (American Home Products Corporation, priority 1994, dated 1996).

For one assay, the system named is Isolated Rat Bladder. Description: Inhibition of contractions in isolated rat bladder strips (bladder smooth muscle relaxing activity). More on the design: species or system Sprague-Dawley rats. The note with it: 0.5 h, 15 mM KCl-enhanced contractions, 30 min challenge, read-out: IC50 or (% Inhibition of Bladder Contraction at 30 μM). As for the experimental part: Bladder smooth muscle relaxing activity of the compounds of this invention was established in accordance with standard pharmaceutically accepted test procedures in representative compounds as follows:
Sprague-Dawley rats (150-200 g) are rendered unconscious by CO2 asphyxiation and then euthanized by cervical dislocation. The bladder is removed into warm (37° C.) physiological salt solution (PSS) of the following composition (mM): NaCl, 118.4; KCl, 4.7; CaCl2, 2.5; […]; NaHCO3, 24.9; KH2 PO4, 1.2; glucose, 11.1; EDTA, 0.023; gassed with […]; pH 7.4. The bladder is opened and then cut into strips 1-2 mm in width and 7-10 mm in length. The strips are subsequently suspended in a 10 ml tissue bath under an initial resting tension of 1.5 g. The strips are held in place by two surgical clips one of which is attached to fixed hook while the other is attached to an isometric force transducer. […] The carbachol is then washed out and the tissue allowed to relax to its resting level of activity. Following one further 30 min period of recovery an additional 15 mM KCl are introduced into the tissue bath. […] Contractile activity is measured for each compound or vehicle concentration during the last min of a 30 min challenge. […]

The test system of assay [1] is Isolated Rat Aortic Tissue. Put plainly: Inhibition of contractions in isolated rat aortic rings (aortic smooth muscle relaxing activity). Also noted: species or system Sprague-Dawley rats. The note with it: isolated rat thoracic aorta rings, 25 mM KCl contracture, cumulative addition; read-out: IC50 or (% Inhibition of Aorta Contraction at 30 μM). As for the experimental part: Aortic smooth muscle relaxing activity of the compounds of this invention was established in accordance with standard pharmaceutically accepted test procedures in representative compounds as follows:
Sprague-Dawley rats (150-200 g) are rendered unconscious by CO2 asphyxiation and then euthanized by cervical dislocation. The thoracic aorta is removed into warm (37° C.) Krebs-Henseleit solution. The aorta is cleaned of fat and loose adventitia and cut into rings 3-4 mm in width. The rings are subsequently suspended between two stainless steel wire tissue holders in a 10 ml tissue bath. One wire tissue holder is attached to fixed hook while the other is attached to an isometric force transducer. Resting tension is set at 1.0 g. The tissues are allowed to recover for a period of 60 mins prior to beginning the experiment. The tissues are challenged with 25 mM KCl to elicit a contracture. The tissue are then washed repeatedly with fresh Krebs-Henseleit solution over a period of 30 mins and allowed to recover to baseline tension. 25 mM KCl is then introduced into the tissue bath to evoke a contracture that is allowed to stabilize for not less than 45 mins. Increasing concentrations of test compound or vehicle are then added to the tissue bath in a cumulative fashion.
Isometric force developed by the aortic rings is measured using force transducer and recorded on a polygraph. […]

SMILES strings stand for the structures.

For orientation: IC50 means the concentration that gives 50% inhibition. For `CC1(C)C=C(c2c(N)c(=O)c2=O)c2cc(C#N)ccc2O1` [Example 2, 4-(2-Amino-3,4-dioxo-cyclobut-1-enyl)-2,2-dimethyl-2H-chromene-6-carbonitrile], the half-maximal inhibitory concentration (IC50) was found to be 390 ± 40 nM in the assay with Isolated Rat Bladder and 150 ± 20 nM in assay [1].

As for `CNc1c(C2=CC(C)(C)Oc3ccc(C#N)cc32)c(=O)c1=O` [Example 3, 2,2-Dimethyl-4-(2-methylamino-3,4-dioxo-cyclobut-1-enyl)-2H-chromene-6-carbonitrile], the figures for the IC50 (with Isolated Rat Bladder; in assay [1]) were 4100 ± 1800 nM and 560 ± 40 nM, respectively.
